Source: US7915293B2, “Ubiquitin ligase inhibitors” (Rigel Pharmaceuticals, Inc., priority 2003, dated 2011)

Legend:
Set-up in all cases: key: “+” indicates that the compound exibits inhibitory activity; “−” indicates that low or no inhibitory activity was observed
HeLa cells [1] = assay: Non-photographic proliferation analysis (Promega Cell titer Aqueous), HeLa; type: cell-based; settings: 6 concentrations tested
In short: (§1)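 HeLa, A549 and HCT116 cells, 2,000 per well in RPMI with 5% FBS, were given compounds 24 h after plating as 6.3-fold duplicate dilutions from 10 mM stock, diluted 500-fold into the wells. After 48 h at 37° C, 5% CO2, Cell titer Aqueous reagent was added for 45 min and absorbance read at 490 nm.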

HCT116 cells [2] = assay: Cell proliferation assay, photographic image analysis of proliferation, apoptosis and death (PAD assay), HCT116; type: cell-based; settings: 6 concentrations tested
Protocol: (§2) A549 (ATCC# CCL-185), HeLa (ATCC# CCL-2), HCT116 (ATCC# CCL-247), and H1299 (ATCC# CRL-5803) cells were maintained in T175 flasks following the ATCC recommended media and handling procedures. Flasks reaching approximately 70% confluency were trypsinized and resuspended in RPMI media (Cell-Gro catalog number 10-040-CM) modified to contain 5% FBS, 100 ug/mlPen/Strep (Cell-Gro catalog number 30-002-CL), and 0.3 mg/ml L-Glutamine (Cell-Gro catalog number 25-003-CL). A 20,000 cells/ml solution was made for plating. Cells were plated in black Packard 96 well plates by placing 100 μl per well (2,000 cells per well).
(§3) Compounds and additional media were added 24 hours after cell plating. A compound master plate was created with concentrations 500 times greater than the final concentration added to the cells. All compound testing was done in duplicate using 6.3 fold dilutions starting with 10 mM. All outside wells (and 4 internal wells) were DMSO controls. Taxol and at least one additional control were run on all plates. Three microliters of the compound master plate were added to deep well blocks containing 750 μl of RPMI media. One hundred microliters were transferred from the compound/media deep well blocks to the plated cells resulting in a 500 fold dilution of the compounds. Cells were grown at 37° C., 5% CO2 for 48 hours.
(§4) Cells to be analyzed by photography were fixed and stained. One hundred microliters of media were removed and 100 μl of 9.3% […] was added to each well. Plates were left on the benchtop for 45 minutes. A staining solution containing 1.55 μl of 1 mg/ml DAPI added to 18.75 ml PBS was warmed for 15 minutes at 37° C. The cells were aspirated prior to washing with 100 μl of PBS. Seventy microliters of PBS were aspirated and 170 μl of the DAPI solution were added to each well of fixed cells. Plates were left at room temperature for one hour then aspirated and washed twice with 100 μl of PBS. The stained cells were left at 4° C. for a minimum of 16 hours before photographic analysis with Array Scan II (Cellomics). Analysis of the photographic images to determine numbers of live cells (proliferation), apoptotic cells and dead cells, were according to the methods described in U.S. Provisional Patent Application Ser. No. 60/406,714, which incorporated herein in its entirety.

HeLa cells [3] = assay: Cell proliferation assay, photographic image analysis of proliferation, apoptosis and death (PAD assay), HeLa; type: cell-based; settings: 6 concentrations tested
In short: (§5)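 Cells grown in RPMI with 5% FBS (2,000/well) and dosed 24 h after plating with 6.3-fold dilutions in duplicate (master plate 500× final, top 10 mM stock). After 48 h at 37 °C, cells formamide-fixed and DAPI-stained. Image analysis counted live, apoptotic and dead cells.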

A549 cells [4] = assay: Cell proliferation assay, photographic image analysis of proliferation, apoptosis and death (PAD assay), A549; type: cell-based; settings: 6 concentrations tested
In short: as §5

A549 cells [5] = assay: Non-photographic proliferation analysis (Promega Cell titer Aqueous), A549; type: cell-based; settings: 6 concentrations tested
In short: as §1

HCT116 cells [6] = assay: Non-photographic proliferation analysis (Promega Cell titer Aqueous), HCT116; type: cell-based; settings: 6 concentrations tested
Protocol: as §2, §3
Some cell plates were treated with Promega Cell titer Aqueous 1 kit (promega—VWR catalog number G3580). In this case, 48 hours after the test compound were added, 100 μl of media were removed and 20 μl of cell titer reagent were added to all wells. Plates were incubated at 37° C. for 45 minutes prior to absorbance reads on the Wallac plate reader at 490 nm for 0.1 sec/well.

[7] = target: E3 (His-APC11/APC2-"APC") (Homo sapiens, UniProt Q9NYG5+Q9UJX6); assay: Plate-based E3 ligase assay (APC FLAG), auto-ubiquitination; type: biochemical; settings: 8 concentrations tested
Chain of E3 (His-APC11/APC2-"APC") (Q9NYG5 whole entry): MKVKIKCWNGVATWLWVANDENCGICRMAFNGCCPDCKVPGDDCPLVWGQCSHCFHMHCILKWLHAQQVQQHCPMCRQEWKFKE
Chain of E3 (His-APC11/APC2-"APC") (Q9UJX6 whole entry): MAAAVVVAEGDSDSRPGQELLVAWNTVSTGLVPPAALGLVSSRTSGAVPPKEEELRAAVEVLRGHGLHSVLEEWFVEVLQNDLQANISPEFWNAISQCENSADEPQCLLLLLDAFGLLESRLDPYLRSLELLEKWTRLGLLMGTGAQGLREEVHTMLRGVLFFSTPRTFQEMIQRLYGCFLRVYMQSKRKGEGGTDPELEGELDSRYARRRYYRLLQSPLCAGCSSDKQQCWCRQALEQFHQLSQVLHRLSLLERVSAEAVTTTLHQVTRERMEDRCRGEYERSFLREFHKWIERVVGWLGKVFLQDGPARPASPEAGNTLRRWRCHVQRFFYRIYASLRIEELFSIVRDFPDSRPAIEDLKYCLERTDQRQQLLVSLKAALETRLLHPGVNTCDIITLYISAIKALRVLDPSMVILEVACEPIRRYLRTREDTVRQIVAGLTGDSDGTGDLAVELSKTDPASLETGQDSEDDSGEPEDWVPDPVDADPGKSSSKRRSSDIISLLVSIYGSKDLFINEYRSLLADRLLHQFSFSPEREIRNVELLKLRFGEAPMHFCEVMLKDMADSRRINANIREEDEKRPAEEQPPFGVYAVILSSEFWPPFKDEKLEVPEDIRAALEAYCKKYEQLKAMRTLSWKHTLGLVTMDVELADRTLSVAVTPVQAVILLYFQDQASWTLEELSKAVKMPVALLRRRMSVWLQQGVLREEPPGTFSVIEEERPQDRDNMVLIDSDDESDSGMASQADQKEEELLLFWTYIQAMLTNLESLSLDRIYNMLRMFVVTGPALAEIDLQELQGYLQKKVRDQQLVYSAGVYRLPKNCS
In short: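 His-APC11/APC2 auto-ubiquitination was run in casein-blocked nickel plates for 1 h at room temperature, with E1 at 5 ng/well, UbcH5c at 20 ng/well and APC at 100 ng/well. Buffer was 62.5 mM Tris pH 7.6, 3 mM MgCl2, 1 mM DTT, 2.5 mM ATP and Flag-ubiquitin at 100 ng/well. Detection used anti-Flag/HRP chemiluminescence, and IC50 was typically from 6 or 8 concentrations versus a DMSO control.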

H1299 cells = assay: Cell proliferation assay, photographic image analysis of proliferation, apoptosis and death (PAD assay), H1299; type: cell-based; settings: 6 concentrations tested
Protocol: as §2, §3, §4

MDM2 / p53 substrate = MDM2 / p53 substrate (Homo sapiens, UniProt Q00987); assay: Plate-based MDM2 substrate ligation assay (MDM2-P53-FLAG); type: biochemical; settings: 8 concentrations tested
Chain of MDM2 / p53 substrate (Q00987 whole entry): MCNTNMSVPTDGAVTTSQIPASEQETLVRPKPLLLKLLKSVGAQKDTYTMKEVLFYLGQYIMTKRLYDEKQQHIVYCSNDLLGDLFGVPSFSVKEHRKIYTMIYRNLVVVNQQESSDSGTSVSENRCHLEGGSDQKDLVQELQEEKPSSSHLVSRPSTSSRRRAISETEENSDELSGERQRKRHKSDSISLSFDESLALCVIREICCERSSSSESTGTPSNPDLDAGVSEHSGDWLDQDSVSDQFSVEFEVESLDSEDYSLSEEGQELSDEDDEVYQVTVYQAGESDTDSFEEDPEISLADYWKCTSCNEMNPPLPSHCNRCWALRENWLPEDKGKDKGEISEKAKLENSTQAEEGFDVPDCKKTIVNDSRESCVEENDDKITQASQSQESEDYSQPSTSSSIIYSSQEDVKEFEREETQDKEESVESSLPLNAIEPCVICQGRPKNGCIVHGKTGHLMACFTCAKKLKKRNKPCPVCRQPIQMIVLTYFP
Source text: This assay was preformed essentially as described in WO 03/076899 (page 77, line 5 to page 80, line 13), hereby incorporated by reference in its entirety.

| SMILES | APC Flag 8 pt [7] | MDM2-P53 Flag 8 pt (MDM2 / p53 substrate) | Cell Titer-Aqueous, HELA 6 pt (HeLa cells [1]) | PAD Assay, HCT116 6 pt (HCT116 cells [2]) | PAD Assay, HELA 6 pt (HeLa cells [3]) | PAD Assay, A549 6 pt (A549 cells [4]) | Cell Titer-Aqueous, A549 6 pt (A549 cells [5]) | Cell Titer-Aqueous, HCT116 6 pt (HCT116 cells [6]) | PAD Assay, H1299 6 pt (H1299 cells) |
| --- | --- | --- | --- | --- | --- | --- | --- | --- | --- |
| O=[N+]([O-])c1ccc(Oc2c(Cl)cc(S(=O)(=O)Nc3cccc(Cl)c3)cc2Cl)c(Cl)c1 [Compound 154, 3,5-dichloro-4-(2-chloro-4-nitrophenoxy)-N-(3-chlorophenyl)benzenesulfonamide] | + |  | + | − | − | − | + | − |  |
| O=[N+]([O-])c1ccc(Oc2c(Cl)cc(S(=O)(=O)Nc3ccc(Cl)c(Cl)c3)cc2Cl)c(Cl)c1 [Compound 167, 3,5-dichloro-4-(2-chloro-4-nitrophenoxy)-N-(3,4-dichlorophenyl)benzenesulfonamide] | + |  | + |  | + | + | + |  | + |
| O=S(=O)(Nc1cc(Cl)ccc1C(F)(F)F)c1cc(Cl)c(Oc2ccc(Cl)cc2Cl)c(Cl)c1 [Compound 249, 3,5-dichloro-N-[5-chloro-2-(trifluoromethyl)phenyl]-4-(2,4-dichlorophenoxy) benzenesulfonamide] | + |  |  |  | + | + |  |  | + |
| O=[N+]([O-])c1ccc(Oc2c(Cl)cc(S(=O)(=O)Nc3cc(Cl)cc(Cl)c3)cc2Cl)c(Cl)c1 [Example 24, 3,5-dichloro-4-(2-chloro-4-nitrophenoxy)-N-(3,5-dichlorophenyl)benzenesulfonamide] | + | + |  |  |  | − |  |  |  |
| O=C(NCC1CC1)c1ccccc1NS(=O)(=O)c1cc(Cl)c(Oc2ccc([N+](=O)[O-])cc2Cl)c(Cl)c1 [Example 123, N-(cyclopropylmethyl)-2-({[3,5-dichloro-4-(2-chloro-4-nitrophenoxy)phenyl]sulfonyl}amino)benzamide] | + | − | + |  | + | + | + | + |  |
| O=S(=O)(Nc1cc(Cl)ccc1Cl)c1ccc(Oc2ncc(C(F)(F)F)cc2Cl)cc1 [Example 253, 4-{[3-chloro-5-(trifluoromethyl)pyridin-2-yl]oxy}-N-(2,5-dichlorophenyl)benzene-sulfonamide] | + |  |  | + | + | + |  |  | + |

Second part, led by results:

| APC Flag 8 pt [7] | MDM2-P53 Flag 8 pt (MDM2 / p53 substrate) | SMILES | Cell Titer-Aqueous, HELA 6 pt (HeLa cells [1]) | PAD Assay, HCT116 6 pt (HCT116 cells [2]) | PAD Assay, HELA 6 pt (HeLa cells [3]) | PAD Assay, A549 6 pt (A549 cells [4]) | Cell Titer-Aqueous, A549 6 pt (A549 cells [5]) | Cell Titer-Aqueous, HCT116 6 pt (HCT116 cells [6]) | PAD Assay, H1299 6 pt (H1299 cells) |
| --- | --- | --- | --- | --- | --- | --- | --- | --- | --- |
| + |  | O=[N+]([O-])c1ccc(Oc2c(Cl)cc(S(=O)(=O)Nc3cc(C(F)(F)F)ccc3Cl)cc2Cl)c(Cl)c1 [Compound 243, 3,5-dichloro-4-(2-chloro-4-nitrophenoxy)-N-(2-chloro-5-(trifluoromethyl)phenyl]benzenesulfonamide] |  | + | + | + |  |  | + |
| + |  | O=S(=O)(Nc1cc(C(F)(F)F)ccc1Cl)c1ccc(Oc2ncc(C(F)(F)F)cc2Cl)cc1 [Compound 254, N-[2-chloro-5-(trifluoromethyl)phenyl]-4-{[3-chloro-5-(trifluoromethyl)pyridin-2-yl]oxy}benzenesulfonamide] |  | + | + | + |  |  | + |
| + |  | O=[N+]([O-])c1ccc(Oc2ccc(S(=O)(=O)Nc3cc(C(F)(F)F)ccc3Cl)cc2Cl)c(C(F)(F)F)c1 [Compound 264] |  |  | + | + |  |  | + |
|  | − | O=[N+]([O-])c1ccc(Oc2c(Cl)cc(S(=O)(=O)Nc3cccc(C(F)(F)F)c3)cc2Cl)c(Cl)c1 [Example 7, 3,5-dichloro-4-(2-chloro-4-nitrophenoxy)-N-[3-(trifluoromethyl)phenyl]benzene-sulfonamide] |  |  |  |  |  |  |  |
| + | − | O=[N+]([O-])c1ccc(Oc2c(Cl)cc(S(=O)(=O)Nc3ccc(F)cc3)cc2Cl)c(Cl)c1 [Example 23, 3,5-dichloro-4-(2-chloro-4-nitrophenoxy)-N-(4-fluorophenyl)benzenesulfonamide] | + |  | + | + | + | + |  |
| + |  | O=[N+]([O-])c1ccc(Oc2c(Cl)cc(S(=O)(=O)Nc3cc(F)ccc3C(F)(F)F)cc2Cl)c(Cl)c1 [Example 235, 3,5-dichloro-4-(2-chloro-4-nitrophenoxy)-N-[5-fluoro-2-(trifluoromethyl)phenyl] benzenesulfonamide] |  |  | + | + |  |  | + |
